# “And” between values parts separate entries of the source, which are not always exact repeats. Equal values may be shown once.
# Legend:
# [1] = LNP average particle size and polydispersity by dynamic light scattering; type: physicochemical; details: LNP with the compound as amine lipid
# Excerpt: The LNPs have a size of about 1 to about 1,000 nm, about 10 to about 500 nm, about 20 to about 500 nm, in a sub-embodiment about 50 to about 400 nm, in a sub-embodiment about 50 to about 300 nm, in a sub-embodiment about 50 to about 200 nm, and in a sub-embodiment about 50 to about 150 nm, and in another sub-embodiment about 60 to about 120 nm. Preferably, the LNPs have a size from about 60 nm to about 100 nm. The average sizes (diameters) of the fully formed LNP, may be measured by dynamic light scattering on a Malvern Zetasizer. The LNP sample is diluted in phosphate buffered saline (PBS) so that the count rate is approximately 200-400 kcps. The data is presented as a weighted average of the intensity measure.
# In some embodiments, the LNPs have a size of about 75 to about 120 nm. In some embodiments, the LNPs have a size of about 75 to about 100 nm. Unless indicated otherwise, all sizes referred to herein are the average sizes (diameters) of the fully formed nanoparticles, as measured by dynamic light scattering on a Malvern Zetasizer. The nanoparticle sample is diluted in phosphate buffered saline (PBS) so that the count rate is approximately 200-400 kcps. The data is presented as a weighted-average of the intensity measure (Z-average diameter).
# Dynamic Light Scattering (“DLS”) is used to characterize the polydispersity index (“pdi”) and size of the LNPs of the present disclosure. DLS measures the scattering of light that results from subjecting a sample to a light source. PDI, as determined from DLS measurements, represents the distribution of particle size (around the mean particle size) in a population, with a perfectly uniform population having a PDI of zero. Electropheretic light scattering is used to characterize the surface charge of the LNP at a specified pH. The surface charge, or the zeta potential, is a measure of the magnitude of electrostatic repulsion/attraction between particles in the LNP suspension. Asymmetric-Flow Field Flow Fractionation—Multi-Angle Light Scattering (AF4-MALS) is used to separate particles in the composition by hydrodynamic radius and then measure the molecular weights, hydrodynamic radii and root mean square radii of the fractionated particles. […] Nanoparticle tracking analysis (NTA, Malvern Nanosight) can be used to determine particle size distribution as well as particle concentration. LNP samples are diluted appropriately and injected onto a microscope slide. A camera records the scattered light as the particles are slowly infused through field of view. After the movie is captured, the Nanoparticle Tracking Analysis processes the movie by tracking pixels and calculating a diffusion coefficient. This diffusion coefficient can be translated into the hydrodynamic radius of the particle. The instrument also counts the number of individual particles counted in the analysis to give particle concentration.
# LNP compositions are analyzed for average particle size, polydispersity index (pdi), total RNA content, encapsulation efficiency of RNA, and zeta potential. LNP compositions may be further characterized by lipid analysis, AF4-MALS, NTA, and/or cryo-EM. Average particle size and polydispersity are measured by dynamic light scattering (DLS) using a Malvern Zetasizer DLS instrument. LNP samples were diluted with PBS buffer prior to being measured by DLS. Z-average diameter which is an intensity-based measurement of average particle size was reported along with number average diameter and pdi. A Malvern Zetasizer instrument is also used to measure the zeta potential of the LNP. Samples are diluted 1:17 (50 μL into 800 μL) in 0.1×PBS, pH 7.4 prior to measurement.
# [2] = pKa of amine lipid by TNS fluorescence; type: physicochemical; details: probe TNS (6-(p-toluidino)-2-naphthalenesulfonic acid sodium salt), unformulated amine lipid in ethanol, sodium phosphate buffers -9.0
# Procedure: The pKa of each amine lipid was determined according to the method in Jayaraman, et al. (Angewandte Chemie, 2012) with the following adaptations. The pKa was determined for unformulated amine lipid in ethanol. Lipid stock solutions (2.94 mM) were diluted into Sodium Phosphate Buffers (0.1 M, Boston Bioproducts) of different pH (pH-range: 4.5-9.0) yielding a final lipid concentration of approx. 100 μM. The test samples were supplemented with TNS {6-(p-Toluidino)-2-naphthalenesulfonic acid sodium salt}, incubated and the fluorescence intensity was measured using excitation and emission wavelengths of 321 nm and 448 nm, respectively. The recorded data were normalized and the respective pKa values were derived from sigmoidal fitting.
# [3] = RNA encapsulation efficiency of LNP (Ribogreen fluorescence assay); type: physicochemical; details: LNP with the compound as amine lipid
# Procedure: A fluorescence-based assay (Ribogreen®, ThermoFisher Scientific) is used to determine total RNA concentration and free RNA. Encapsulation efficiency is calculated as (Total RNA—Free RNA)/Total RNA. LNP samples are diluted appropriately with 1× TE buffer containing 0.2% Triton-X 100 to determine total RNA or 1× TE buffer to determine free RNA. Standard curves are prepared by utilizing the starting RNA solution used to make the compositions and diluted in 1× TE buffer+/−0.2% Triton-X 100. Diluted RiboGreen® dye (according to the manufacturer's instructions) is then added to each of the standards and samples and allowed to incubate for approximately 10 minutes at room temperature, in the absence of light. A SpectraMax M5 Microplate Reader (Molecular Devices) is used to read the samples with excitation, auto cutoff and emission wavelengths set to 488 nm, 515 nm, and 525 nm respectively. Total RNA and free RNA are determined from the appropriate standard curves.
# Encapsulation efficiency is calculated as (Total RNA−Free RNA)/Total RNA. The same procedure may be used for determining the encapsulation efficiency of a DNA-based cargo component. For single-strand DNA, Oligreen Dye may be used and for double-strand DNA, Picogreen Dye.
# mouse TTR = assay: Serum TTR ELISA in mice after LNP delivery; type: in vivo; details: mouse serum, relative to TSS control of same experiment
# Procedure: For studies measuring in vivo editing in liver, CD-1 female mice were dosed at 0.1 mpk unless otherwise noted. Animals were euthanized at 6 or 7 days by exsanguinationvia cardiac puncture under isoflourane anesthesia. Liver tissue was collected from each animal for DNA extraction and analysis. Blood was collected into serum separator tubes or into tubes containing buffered sodium citrate for plasma as described herein. Cohorts of mice were measured for editing by Next-Generation Sequencing (NGS).
# Blood was collected and the serum was isolated as indicated. The total mouse TTR serum levels were determined using a Mouse Prealbumin (Transthyretin) ELISA Kit (Aviva Systems Biology, Cat. OKIA00111). Briefly, sera were serial diluted with kit sample diluent, e.g. to a final dilution of 10,000-fold and/or 2,500-fold. The diluted sample was then added to the ELISA plates and the assay was then carried out according to directions. Serum TTR data from treatment groups are expressed as a percentage of vehicle control levels.
# [4] = Expt. 4, composition ratio (mol %) 50/9/38/3 for Cmpnd 49, 50/10/38.5/1.5 for the others
# [5] = Expt. 9, composition ratio (mol %) 50/9/38/3 for Cmpnd 49, 50/10/38.5/1.5 for the others
# [6] = Expt. 7, composition ratio (mol %) 50/9/38/3 for Cmpnd 49, 50/10/38.5/1.5 for the others
# [7] = Expt. 1, composition ratio (mol %) 50/9/38/3 for Cmpnd 49, 50/10/38.5/1.5 for the others
# [8] = Expt. 5, composition ratio (mol %) 50/10/38.5/1.5
# [9] = Expt. 10, composition ratio (mol %) 50/9/38/3 for Cmpnd 49, 50/10/38.5/1.5 for the others
# [10] = Expt. 2, composition ratio (mol %) 50/9/39.5/3 for Cmpnd 49, 50/9/39.5/1.5 for the others
pKa [2],"Num Ave Size (nm) [1, 7] [nm]","PDI [1, 7]","Z-Ave Size (nm) [1, 7] [nm]","Encapsulation (%) [3, 7] [%]",Compound,Serum TTR % TSS (mouse TTR; dose 0.03 mpk) [% TSS],Serum TTR % TSS (mouse TTR; dose 0.1 mpk) [% TSS],other results
6.44,–,–,–,–,"CCCCC/C=C\C/C=C\CCCCCCCC(=O)OCC(COC(=O)CCCCCCC/C=C\C/C=C\CCCCC)OC(=O)CCC(CCCCC)OC(=O)NCCN(C)CC (stereo not drawn) [Compound 69, 2-((4-(((2-(ethyl(methyl)amino)ethyl)carbamoyl)oxy)nonanoyl)oxy)propane-1,3-diyl (9Z,9′Z,12Z,12′Z)-bis(octadeca-9,12-dienoate)]",54,12,"Num Ave Size (nm) [1, 4]: 88.76 nm; PDI [1, 4]: 0.017; Z-Ave Size (nm) [1, 4]: 108.90 nm; Encapsulation (%) [3, 4]: 96%"
6.8,–,–,–,–,"CCCCC/C=C\C/C=C\CCCCCCCC(=O)OCC(COC(=O)CCCCCCC/C=C\C/C=C\CCCCC)OC(=O)CCC(CC(CC)CC)OC(=O)NCCN1CCCC1 (stereo not drawn) [Compound 106, 2-((6-ethyl-4-(((2-(pyrrolidin-1-yl)ethyl)carbamoyl)oxy)octanoyl)oxy)propane-1,3-diyl (9Z,9′Z,12Z,12′Z)-bis(octadeca-9,12-dienoate)]",–,–,"Num Ave Size (nm) [1, 5]: 74 nm; PDI [1, 5]: 0.01; Z-Ave Size (nm) [1, 5]: 91 nm; Encapsulation (%) [3, 5]: 99%; Serum TTR % TSS (mouse TTR; dose 0.03 mpk, 0.03 mg/kg): 82.47 % TSS and 88.7 % TSS"
6.15,–,–,–,–,"CCCCC/C=C\C/C=C\CCCCCCCC(=O)OCC(COC(=O)CCCCCCC/C=C\C/C=C\CCCCC)OC(=O)CCC(CCCCCCCCCC)OC(=O)OCCCN1CCCC1 (stereo not drawn) [Compound 66, 2-((4-(((3-(pyrrolidin-1-yl)propoxy)carbonyl)oxy)tetradecanoyl)oxy)propane-1,3-diyl (9Z,9′Z,12Z,12′Z)-bis(octadeca-9,12-dienoate)]",54.682,19.674,"Num Ave Size (nm) [1, 6]: 65.07 nm; PDI [1, 6]: 0.035; Z-Ave Size (nm) [1, 6]: 79.79 nm; Encapsulation (%) [3, 6]: 98%"
6.22,79.57,0.07,103.40,97,"CCCCCCCCCCCOC(=O)CCCCCCCC(=O)OCC(COC(=O)CCCCCCCC(=O)OCCCCCCCCCCC)OC(=O)CCC(CCCCCCCC)OC(=O)NCCN(C)CC (stereo not drawn) [Compound 60, O′1,O1-(2-((4-(((2-(ethyl(methyl)amino)ethyl)carbamoyl)oxy)dodecanoyl)oxy)propane-1,3-diyl) 9,9′-diundecyl di(nonanedioate)]",–,60.51,–
7.39,–,–,–,–,"CCCCC/C=C\C/C=C\CCCCCCCC(=O)OCC(COC(=O)CCCCCCC/C=C\C/C=C\CCCCC)OC(=O)CCC(CCCCCC)OC(=O)NC1CN(C)C1 (stereo not drawn) [Compound 84, 2-((4-(((1-methylazetidin-3-yl)carbamoyl)oxy)decanoyl)oxy)propane-1,3-diyl (9Z,9′Z,12Z,12′Z)-bis(octadeca-9,12-dienoate)]",80.3,73.2,"Num Ave Size (nm) [1, 8]: 75 nm; PDI [1, 8]: 0.03; Z-Ave Size (nm) [1, 8]: 91.00 nm; Encapsulation (%) [3, 8]: 99%"
6.48,–,–,–,–,"CCCCC/C=C\C/C=C\CCCCCCCC(=O)OCC(COC(=O)CCCCCCC/C=C\C/C=C\CCCCC)OC(=O)CCC(CCCCCCCC)OC(=O)NCCN(C)C (stereo not drawn) [Compound 91, 2-((4-(((2-(dimethylamino)ethyl)carbamoyl)oxy)dodecanoyl)oxy)propane-1,3-diyl (9Z,9′Z,12Z,12′Z)-bis(octadeca-9,12-dienoate)]",89,–,"Num Ave Size (nm) [1, 9]: 82 nm; PDI [1, 9]: 0.01; Z-Ave Size (nm) [1, 9]: 97 nm; Encapsulation (%) [3, 9]: 98%"
6.26,74.35,0.03,90.75,98,"CCCCC/C=C\C/C=C\CCCCCCCC(=O)OCC(COC(=O)CCCCCCC/C=C\C/C=C\CCCCC)OC(=O)CC(CCCCCCCC)OC(=O)NCCN(C)CC (stereo not drawn) [Compound 52, 2-((3-(((2-(ethyl(methyl)amino)ethyl)carbamoyl)oxy)undecanoyl)oxy)propane-1,3-diyl (9Z,9′Z,12Z,12′Z)-bis(octadeca-9,12-dienoate)]",–,17.31,–
6.43,–,–,–,–,"CCCCC/C=C\C/C=C\CCCCCCCC(=O)OCC(COC(=O)CCCCCCC/C=C\C/C=C\CCCCC)OC(=O)CCC(CCCC)OC(=O)NCC1CCCN1C (stereo not drawn) [Compound 67, 2-((4-((((1-methylpyrrolidin-2-yl)methyl)carbamoyl)oxy)octanoyl)oxy)propane-1,3-diyl (9Z,9′Z,12Z,12′Z)-bis(octadeca-9,12-dienoate)]",65.41,–,"Num Ave Size (nm) [1, 10]: 82.14 nm; PDI [1, 10]: 0.043; Z-Ave Size (nm) [1, 10]: 102.20 nm; Encapsulation (%) [3, 10]: 99%"
6.32,87.26,0.04,106.40,97,"CCCCC/C=C\C/C=C\CCCCCCCC(=O)OCC(COC(=O)CCCCCCCC(=O)OCCCCCCCCCCC)OC(=O)CC(CCCCCCCC)OC(=O)NCCN(C)CC (stereo not drawn) [Compound 62, 1-(3-methyl-13-((((9Z,12Z)-octadeca-9,12-dienoyl)oxy)methyl)-9-octyl-7,11-dioxo-8,12-dioxa-3,6-diazatetradecan-14-yl) 9-undecyl nonanedioate]",–,57.89,–
